A short description of series [1]: Determination of brain to plasma ratio in rat. The following applies: female Sprague Dawley rats, read-out: Brain/Plasma Ratio of compound in Rat. Type of series: in vivo. How it is done:
Brain to plasma ratios are estimated in female Sprague Dawley rats. The compound is dissolved in water or another appropriate vehicle. For determination of brain to plasma ratio the compound is administrated as a subcutaneous, or an intravenous bolus injection, or an intravenous infusion, or an oral administration. At a predetermined time point after the administration a blood sample is taken with cardiac puncture. The rat is terminated by cutting the heart open, and the brain is immediately retained. The blood samples are collected in heparinized tubes and centrifuged within 30 minutes, in order to separate the plasma from the blood cells. The plasma is transferred to 96-well plates and stored at −20° C. until analysis. The brains are divided in half, and each half is placed in a pre-tarred tube and stored at −20° C. until analysis. Prior to the analysis, the brain samples are thawed and 3 mL/g brain tissue of distilled water is added to the tubes. The brain samples are sonicated in an ice bath until the samples are homogenized. Both brain and plasma samples are precipitated with acetonitrile. After centrifugation, the supernatant is diluted with 0.2% formic acid. Analysis is performed on a short reversed-phase HPLC column with rapid gradient elution and MSMS detection using a triple quadrupole instrument with electrospray ionisation and Selected Reaction Monitoring (SRM) acquisition. Liquid-liquid extraction may be used as an alternative sample clean-tip. The samples are extracted, by shaking, to an organic solvent after addition of a suitable buffer. An aliquot of the organic layer is transferred to a new vial and evaporated to dryness under a stream of nitrogen. After reconstitution of the residuals the samples are ready for injection onto the HPLC column.

Another series addresses T1, human mGluR5d (Homo sapiens, UniProt P41594).
T1 construct: expressed in transfected cells; The separate IP3 assay uses GHEK cells stably expressing human mGluR5d
In words: FLIPR assay, mobilization of intracellular calcium in cells expressing human mGluR5d. It counts as cell-based. The following applies: antagonism, read-out: FLIPR hmGluR5d. The text has this:
Functional Assessment of mGluR5 Antagonism in Cell Lines Expressing mGluR 5D
The properties of the compounds of the invention can be analyzed using standard assays for pharmacological activity. Examples of glutamate receptor assays are well known in the art as described in for example Aramori et al, Neuron 8:757 (1992), Tanabe et al., Neuron 8:169 (1992), Miller et al., J. Neuroscience 15: 6103 (1995), Balazs, et al., J. Neurochemistry 69:151 (1997). The methodology described in these publications is incorporated herein by reference. Conveniently, the compounds of the invention can be studied by means of an assay (FLIPR) that measures the mobilization of intracellular calcium, [Ca^2+]i in cells expressing mGluR5 or another assay (IP3) that measures inositol phosphate turnover.
Cells expressing human mGluR5d as described in WO97/05252 cultured in a mixture of high glucose DMEM with Glutamax (31966-021)(500 mL), 10% dialyzed fetal bovine serum (Hyclone #SH30079.03)(56 mL), 200 μg/mL Hygromycin B (Invitrogen 45-0430, 50 mg/mL)(2.2 mL), 200 μg/mL Zeocin (invitrogen #R250-01; 100 mg/mL)(1.1 mL) are seeded at a density of 100,000 cells per well on collagen coated clear bottom 96-well plates with black sides and cells were allowed to adhere over night before experiments. All assays are done in a buffer containing 146 mM NaCl, 5 mM KCl, 1 mM MgCl2, 1 mM CaCl2, 20 mM HEPES, 1 mg/mL glucose and 1 mg/mL BSA Fraction IV (pH 7.4). Cell cultures in the 96-well plates are loaded for 60 minutes in the above mentioned buffer containing 6 μM of the acetoxymethyl ester form of the fluorescent calcium indicator fluo-3 (Molecular Probes, Eugene, Oreg.) in 0.025% pluronic acid (a proprietary, non-ionic surfactant polyol—CAS Number 9003-11-6). […] The fluorescence signal is sampled 50 times at 1-second intervals followed by 3 samples at 5-second intervals immediately after each of the two additions. Responses are measured as the difference between the peak heights of the response to agonist, less the background fluorescence within the sample period. […]
Background: A change in cytosolic calcium serves as a functional read-out for many receptors and channels.

T1 sequence (P41594 21-942 isoform P41594-3 limits assumed): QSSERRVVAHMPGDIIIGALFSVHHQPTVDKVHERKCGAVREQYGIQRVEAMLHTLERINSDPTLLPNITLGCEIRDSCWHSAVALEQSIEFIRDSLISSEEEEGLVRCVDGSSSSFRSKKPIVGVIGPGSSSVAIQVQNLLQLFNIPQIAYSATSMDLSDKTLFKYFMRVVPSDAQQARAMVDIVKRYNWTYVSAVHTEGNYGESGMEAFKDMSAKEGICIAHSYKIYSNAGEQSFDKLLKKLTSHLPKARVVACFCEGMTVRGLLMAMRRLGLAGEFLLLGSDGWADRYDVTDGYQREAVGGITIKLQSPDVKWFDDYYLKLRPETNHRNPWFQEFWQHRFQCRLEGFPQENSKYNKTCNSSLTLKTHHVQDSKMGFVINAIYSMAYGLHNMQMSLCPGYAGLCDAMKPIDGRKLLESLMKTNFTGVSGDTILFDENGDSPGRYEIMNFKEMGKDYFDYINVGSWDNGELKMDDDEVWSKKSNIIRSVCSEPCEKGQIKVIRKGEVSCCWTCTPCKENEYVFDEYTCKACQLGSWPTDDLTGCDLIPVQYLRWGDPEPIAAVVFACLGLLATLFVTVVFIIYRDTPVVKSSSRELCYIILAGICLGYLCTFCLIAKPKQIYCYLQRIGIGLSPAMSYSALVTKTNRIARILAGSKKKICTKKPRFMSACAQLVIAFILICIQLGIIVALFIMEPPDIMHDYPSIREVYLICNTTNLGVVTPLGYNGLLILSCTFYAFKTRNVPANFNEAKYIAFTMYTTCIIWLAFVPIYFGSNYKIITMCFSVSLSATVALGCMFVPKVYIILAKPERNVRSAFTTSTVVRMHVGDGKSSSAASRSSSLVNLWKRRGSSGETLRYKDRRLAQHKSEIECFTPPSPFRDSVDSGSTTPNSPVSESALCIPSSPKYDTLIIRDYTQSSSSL

Take `Cn1c(-c2ccc(N)nc2)nnc1N1CCCC1c1cc(-c2ccccc2)on1` (stereo in doubt) [Example 5.3, 5-{4-Methyl-5-[(2R)-2-(5-phenylisoxazole-3-yl)pyrrolidin-1-yl]-4H-1,2,4-triazol-3-yl}pyridin-2-amine]: the Kp in series [1] is under 0.01. Moreover, at human mGluR5d, the IC50 turned out to be 34 nM.

Regarding `CN(C)c1ccc(-c2nnc(N3CCC[C@@H]3c3cc(-c4cccc(Cl)c4)on3)n2C)cn1` [Example 5.1, 5-(5-{(2R)-2-[5-(3-Chlorophenyl)isoxazol-3-yl]pyrrolidin-1-yl}-4-methyl-4H-1,2,4-triazol-3-yl)-N,N-dimethylpyridin-2-amine], the Kp in series [1] came to 0.285. In addition, the IC50 on human mGluR5d amounted to 39 nM.

With `Cn1c(-c2ccc(N)nc2)nnc1N1CCC[C@@H]1c1cc(-c2cccc(Cl)c2)on1` [Example 5.2, 5-(5-{(2R)-2-[5-(3-Chlorophenyl)isoxazol-3-yl]pyrrolidin-1-yl}-4-methyl-4H-1,2,4-triazol-3-yl)pyridin-2-amine], the Kp in series [1] was 0.085. In addition, at human mGluR5d, the IC50 is under 3 nM.

For the origin of these results see patent publication US20090111823A1, “AMINOPYRIDINE DERIVATIVES AS MODULATORS OF MGLUR5” (AstraZeneca AB, priority 2007, published 2009).
